Assay results published in patent US6673768B1, “Transgenic animal models for cardiac hypertrophy and methods of use thereof (treating)” (Board of Regents, The University of Texas System, priority 1997, dated 2004).

What was measured:
[1] = system: neonatal rat cardiomyocytes; assay: AngII- and PE-induced hypertrophy of primary cardiomyocytes (anti-α-actinin staining, cell size and sarcomeric assembly); type: cell-based; details: 72 hr; AngII 10 nM or PE 10 μM
Procedure: To visualize primary cardiomyocytes and their sarcomeric organization, anti-α-actinin mouse monoclonal antibody was used (Sigma). […] Cells were washed in 1×phosphate-buffered saline (PBS), fixed in 3.7% paraformaldehyde for 5 minutes, washed three times with 1×PBS and then pre-blocked in 1×PBS containing 2% horse serum, 2% BSA, and 0.1% non-ionic detergent NP40 for 30 minutes. Anti-α-actinin antibody was added at a dilution of 1:800 in fresh preblock solution and incubated for an additional 30 minutes. Subsequently, the cells were washed three times in 1×PBS with 0.1% NP40. Anti-mouse TRITC-conjugated secondary antibody was then added at a dilution of 1:400 for 30 minutes in pre-block solution and the cells were again washed three times in 1×PBS containing 0.1% NP40. Nuclear staining for DNA was performed with 0.5 μg/ml of bisbenzimide in PBS for 15 minutes followed by three rinses with PBS.

[2] = system: atrial natriuretic factor (ANF) mRNA; assay: ANF mRNA dot blot in primary cardiomyocytes treated with AngII; type: cell-based, rat; details: AngII exposure
Procedure: A-F, Primary rat cardiocytes in serum-free medium were stimulated with AngII (10 nM) or PE (10 μm) for 72 hours. Cells were then fixed and stained with anti-α-actinin antibody to reveal sarcomeres and Hoechst stain to reveal nuclei. […] G, Total RNA was isolated from primary cardiocyte cultures treated with AngII in the presence or absence of CsA as in A and analyzed for expression of GAPDH and ANF transcripts by dot blot. H, Primary rat cardiomyocytes were transiently transfected with a luciferase reporter gene linked to 3 tandem copies of the NF-AT consensus binding site. Cells were then treated with AngII or PE in the presence or absence of CsA, as described above. Forty-eight hours later, cells were harvested and luciferase activity was determined.
To determine whether changes in cardiomyocyte gene expression in response to AngII were also controlled by a calcineurin-dependent signaling pathway, the expression of ANF mRNA in cardiomyocytes treated with AngII was examined in the presence and absence of CsA by a dot blot assay. […] GAPDH mRNA was measured as a control.
RNA analysis. Total RNA was collected and purified with Triazol reagent (Gibco BRL) as recommended. […]

angiotensin II [AngII, humoral factor which induces the hypertrophic response in cardiomyocytes]
cardiomyocyte size and sarcomeric assembly after exposure to agonist [1]: dramatic increase in size and sarcomeric assembly
increase in ANF mRNA [2]: 15 fold
